Columns and labels:
vitiligo lesions = experiment: Proof of Concept, double blind, vehicle-controlled study of ARQ-252 cream 0.3% BID with NB-UVB home phototherapy in non-segmental facial vitiligo; assay type: in vivo, human; details: applied topically in combination with narrowband UVB phototherapy, compared to vehicle cream plus narrowband UVB
Description: A Proof of Concept, parallel group, double blind, vehicle-controlled study of the safety and efficacy of a 0.3% SHR0302 topical cream of Example 1 (ARQ-252 cream 0.3%) was designed for subjects with non-segmental facial vitiligo. Subjects with non-segmental facial vitiligo applied either ARQ-252 0.3% cream BID or vehicle cream BID to all affected areas of vitiligo on the face, neck, hands, forearms, and elbows. Product was applied to all affected, depigmented areas and, where anatomically possible, treatment extended approximately 3 cm from the border all around. […]
The two patients were assessed by measures including Facial Vitiligo Area and Severity Index (F-VASI), Facial Body Surface Area (F-BSA), Facial/Neck BSA (F/N-BSA), BSA (Hands, Forearms, Elbows), Facial/Neck VASI (F/N-VASI), VASI of the forearms and elbow (FOREARM-VASI) and VASI of the hands only (HAND-VASI). […] VASI is a quantitative clinical tool that is based on a composite estimate of the overall area of vitiligo patches at baseline and the degree of macular repigmentation within these patches over time. […] BSA affected with vitiligo will be assessed as a percentage of the total BSA, and will be determined to the nearest 0.01% using, as guides, the palm plus 5 digits, with fingers tucked together and thumb tucked to the side (handprint), as 1% BSA and the thumb as 0.1% BSA. […]

JAK 1 = JAK 1 (Homo sapiens, UniProt P23458); details: cited from earlier work
Sequence of JAK 1 (P23458 whole entry, species assumed): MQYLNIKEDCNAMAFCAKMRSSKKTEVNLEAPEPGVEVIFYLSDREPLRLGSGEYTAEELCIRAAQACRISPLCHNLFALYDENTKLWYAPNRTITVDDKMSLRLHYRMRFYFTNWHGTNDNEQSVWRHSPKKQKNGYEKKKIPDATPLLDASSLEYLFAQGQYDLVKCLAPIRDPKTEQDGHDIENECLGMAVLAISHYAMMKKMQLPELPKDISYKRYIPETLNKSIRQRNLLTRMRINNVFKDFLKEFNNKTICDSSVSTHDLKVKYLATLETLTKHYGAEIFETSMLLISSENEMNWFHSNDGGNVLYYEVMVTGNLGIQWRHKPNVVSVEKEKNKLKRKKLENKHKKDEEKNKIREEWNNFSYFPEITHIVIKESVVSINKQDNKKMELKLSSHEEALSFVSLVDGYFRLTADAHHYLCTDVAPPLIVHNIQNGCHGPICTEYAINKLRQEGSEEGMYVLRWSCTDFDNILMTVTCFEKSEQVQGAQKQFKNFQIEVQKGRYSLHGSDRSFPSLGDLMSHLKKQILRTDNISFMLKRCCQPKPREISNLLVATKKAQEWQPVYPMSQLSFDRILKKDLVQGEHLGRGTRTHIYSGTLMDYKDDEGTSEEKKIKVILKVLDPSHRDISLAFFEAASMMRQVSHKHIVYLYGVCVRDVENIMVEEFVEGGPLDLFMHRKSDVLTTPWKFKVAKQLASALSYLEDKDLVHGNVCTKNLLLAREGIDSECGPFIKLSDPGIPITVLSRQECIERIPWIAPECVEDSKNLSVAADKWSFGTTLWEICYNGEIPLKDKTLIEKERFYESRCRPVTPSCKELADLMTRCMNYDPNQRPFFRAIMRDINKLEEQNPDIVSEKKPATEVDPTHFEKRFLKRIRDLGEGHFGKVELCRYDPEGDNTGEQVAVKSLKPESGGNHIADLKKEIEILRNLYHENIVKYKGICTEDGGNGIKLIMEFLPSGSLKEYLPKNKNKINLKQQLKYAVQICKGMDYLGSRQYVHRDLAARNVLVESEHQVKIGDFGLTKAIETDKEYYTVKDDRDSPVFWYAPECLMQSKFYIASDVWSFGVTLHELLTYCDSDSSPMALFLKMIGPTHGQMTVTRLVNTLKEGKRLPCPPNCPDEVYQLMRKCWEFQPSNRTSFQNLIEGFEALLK

## COc1nsc(NC(=O)N2C[C@H]3C[C@H](N(C)c4ncnc5[nH]ccc45)C[C@H]3C2)n1 [SHR0302, (3aR,5S,6aS)—N-(3-methoxyl-1,2,4-thiadiazol-5-yl)-5-(methyl(7H-pyrrolo[2,3-d]pyrimidin-4-yl)amino)hexahydrocyclopenta[c]pyrrole-2(1H)-carboxamide]
Vitiligo lesions
  repigmentation of vitiligo lesions: dramatically repigmented
JAK 1
  inhibition of JAK 1: potent
  selectivity for JAK1 over JAK2: high selectively for JAK1 over JAK2
